From patent publication US11572590B2, “Methods for evaluating tumor cell spheroids using 3D microfluidic cell culture device” (Dana-Farber Cancer Institute, Inc., priority 2017, dated 2023) come the findings set out here.

In this assay the target is off-target kinases (Homo sapiens, UniProt P32298). The assay is described as follows: SelectScreen Kinase Profiling, single point inhibition and IC50 for off-target kinases. The class given is biochemical. To be noted: GRK4; Cmpd1 1000 μM; ATP Km app; ZLYTE.
Sequence of off-target kinases (P32298 whole entry): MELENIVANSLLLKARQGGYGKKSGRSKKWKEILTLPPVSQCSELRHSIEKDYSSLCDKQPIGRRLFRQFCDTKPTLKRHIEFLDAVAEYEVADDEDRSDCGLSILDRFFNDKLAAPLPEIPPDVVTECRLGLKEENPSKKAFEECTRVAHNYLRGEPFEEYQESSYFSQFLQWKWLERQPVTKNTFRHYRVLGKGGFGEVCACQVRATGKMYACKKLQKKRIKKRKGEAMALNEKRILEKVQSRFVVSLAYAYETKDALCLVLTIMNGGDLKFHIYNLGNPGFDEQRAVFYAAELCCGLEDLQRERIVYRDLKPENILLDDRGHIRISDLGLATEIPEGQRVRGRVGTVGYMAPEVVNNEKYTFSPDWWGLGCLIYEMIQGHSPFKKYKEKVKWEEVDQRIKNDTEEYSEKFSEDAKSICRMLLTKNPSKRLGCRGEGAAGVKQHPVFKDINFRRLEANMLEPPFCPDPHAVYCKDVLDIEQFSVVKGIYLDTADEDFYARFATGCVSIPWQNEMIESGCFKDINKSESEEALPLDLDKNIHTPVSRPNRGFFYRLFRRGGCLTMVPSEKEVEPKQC

For `N#Cc1cc(-c2ncnc(Nc3ccc(N4CCN(C5COC5)CC4)cc3)n2)ccc1OC1CCOCC1` [Compound 1, 5-(4-((4-(4-(oxetan-3-yl)piperazin-1-yl)phenyl)amino)-1,3,5-triazin-2-yl)-2-((tetrahydro-2H-pyran-4-yl)oxy)benzonitrile], the “% Inhibition 1” value was −4%, the “% Inhibition 2” value is on record as −5% and the “% Inhibition Avg” value was −5%.
